Measured values as given in ChEMBL document CHEMBL3046035, “Synthesis and biological evaluation of novel 4,5-dihydropyrazole derivatives as potent anticancer and antimicrobial agents” (Med Chem Res, 2013).
Values after ≈ are worked out from the molar mass of the structure shown.

Tests used:
[1] = tested on: Aspergillus niger; experiment: Antimicrobial activity against Aspergillus niger ATCC 6275 assessed as growth inhibition after 24 hr by broth microdilution method; format: functional; details: ATCC 6275, 24 h
[2] = tested on: Candida tropicalis; experiment: Antimicrobial activity against Candida tropicalis ATCC 1369 assessed as growth inhibition after 24 hr by broth microdilution method; format: functional; details: ATCC 1369, 24 h
[3] = tested on: Saccharomyces cerevisiae; experiment: Antimicrobial activity against Saccharomyces cerevisiae ATCC 9763 assessed as growth inhibition after 24 hr by broth microdilution method; format: functional; details: ATCC 9763, 24 h
[4] = tested on: Pseudomonas aeruginosa; experiment: Antimicrobial activity against Pseudomonas aeruginosa ATCC 10145 assessed as growth inhibition after 24 hr by broth microdilution method; format: functional; details: ATCC 10145, 24 h
[5] = tested on: Escherichia coli; experiment: Antimicrobial activity against Escherichia coli ATCC 10536 assessed as growth inhibition after 24 hr by broth microdilution method; format: functional; details: ATCC 10536, 24 h
[6] = tested on: Klebsiella pneumoniae; experiment: Antimicrobial activity against Klebsiella pneumoniae ATCC 10031 assessed as growth inhibition after 24 hr by broth microdilution method; format: functional; details: ATCC 10031, 24 h
[7] = tested on: Bacillus subtilis; experiment: Antimicrobial activity against Bacillus subtilis ATCC 60511 assessed as growth inhibition after 24 hr by broth microdilution method; format: functional; details: ATCC 60511, 24 h
[8] = tested on: Enterococcus faecalis; experiment: Antimicrobial activity against Enterococcus faecalis ATCC 14506 assessed as growth inhibition after 24 hr by broth microdilution method; format: functional; details: ATCC 14506, 24 h
[9] = tested on: Staphylococcus aureus; experiment: Antimicrobial activity against Staphylococcus aureus ATCC 11632 assessed as growth inhibition after 24 hr by broth microdilution method; format: functional; details: ATCC 11632, 24 h
[10] = tested on: BGC-823; experiment: Anticancer activity against Homo sapiens (human) BGC823 cells assessed as inhibition of cell viability after 96 hr by MTT assay; format: functional, cell-based; details: BGC-823, 96 h
[11] = tested on: A2780; experiment: Anticancer activity against Homo sapiens (human) A2780 cells assessed as inhibition of cell viability after 96 hr by MTT assay; format: functional, cell-based; details: A2780, 96 h
[12] = tested on: MCF7; experiment: Anticancer activity against Homo sapiens (human) MCF7 cells assessed as inhibition of cell viability after 96 hr by MTT assay; format: functional, cell-based; details: MCF7, 96 h
[13] = tested on: A549; experiment: Anticancer activity against Homo sapiens (human) A549 cells assessed as inhibition of cell viability after 96 hr by MTT assay; format: functional, cell-based; details: A549, 96 h
[14] = tested on: HeLa; experiment: Anticancer activity against Homo sapiens (human) HeLa cells assessed as inhibition of cell viability after 96 hr by MTT assay; format: functional, cell-based

Structure (SMILES)	MIC [1] [µg/mL]	MIC [2] [µg/mL]	MIC [3] [µg/mL]	MIC [4] [µg/mL]	MIC [5] [µg/mL]	MIC [6] [µg/mL]	MIC [7] [µg/mL]	MIC [8] [µg/mL]	MIC [9] [µg/mL]	IC50 [10] [nM]	IC50 [11] [µM]	IC50 [12] [nM]	IC50 [13] [nM]	IC50 [14] [µM]
O=[N+]([O-])c1ccc(C2N=C(N3N=C(c4ccccc4)CC3c3c(F)cccc3F)S2)cc1 (centres undefined)	125 (≈ 277 µM)	125 (≈ 277 µM)	8 (≈ 17.8 µM)	8 (≈ 17.8 µM)	31.2 (≈ 69.4 µM)	31.2 (≈ 69.4 µM)	62.5 (≈ 139 µM)	16 (≈ 35.5 µM)	31.2 (≈ 69.4 µM)	6110	4.35	3220	3260	6.62
Cc1ccc(C2N=C(N3N=C(c4ccccc4)CC3c3c(F)cccc3F)S2)cc1 (centres undefined)	62.5 (≈ 149 µM)	125 (≈ 298 µM)	62.5 (≈ 149 µM)	4 (≈ 9.54 µM)	8 (≈ 19.1 µM)	4 (≈ 9.54 µM)	16 (≈ 38.1 µM)	8 (≈ 19.1 µM)	16 (≈ 38.1 µM)	3220	5.14	3230	4210	6.59
Oc1ccc(C2N=C(N3N=C(c4ccccc4)CC3c3c(F)cccc3F)S2)cc1 (centres undefined)	31.2 (≈ 74.1 µM)	16 (≈ 38 µM)	16 (≈ 38 µM)	4 (≈ 9.49 µM)	4 (≈ 9.49 µM)	16 (≈ 38 µM)	31.2 (≈ 74.1 µM)	31.2 (≈ 74.1 µM)	16 (≈ 38 µM)	1040	3.14	4320	3440	6.23
Fc1cccc(F)c1C1CC(c2ccccc2)=NN1c1nc(-c2ccccc2)cs1 (centres undefined)	125 (≈ 299 µM)	125 (≈ 299 µM)	62.5 (≈ 150 µM)	62.5 (≈ 150 µM)	31.2 (≈ 74.9 µM)	62.5 (≈ 150 µM)	8 (≈ 19.2 µM)	8 (≈ 19.2 µM)	31.2 (≈ 74.9 µM)	2010	3.09	2230	3010	5.91
Fc1cccc(F)c1C1CC(c2ccccc2)=NN1c1nc(-c2ccc(Cl)cc2)cs1 (centres undefined)	62.5 (≈ 138 µM)	62.5 (≈ 138 µM)	125 (≈ 277 µM)	31.2 (≈ 69.1 µM)	16 (≈ 35.4 µM)	125 (≈ 277 µM)	31.2 (≈ 69.1 µM)	8 (≈ 17.7 µM)	62.5 (≈ 138 µM)	1430	3.56	2760	2110	6.24
Cc1ccc(-c2csc(N3N=C(c4ccccc4)CC3c3c(F)cccc3F)n2)cc1 (centres undefined)	62.5 (≈ 145 µM)	125 (≈ 290 µM)	62.5 (≈ 145 µM)	8 (≈ 18.5 µM)	8 (≈ 18.5 µM)	4 (≈ 9.27 µM)	4 (≈ 9.27 µM)	8 (≈ 18.5 µM)	4 (≈ 9.27 µM)	1200	3.03	2500	1210	4.86

The next molecules have a lower MIC [1] than those just listed; values first:

MIC [1] [µg/mL]	MIC [2] [µg/mL]	MIC [3] [µg/mL]	MIC [4] [µg/mL]	MIC [5] [µg/mL]	MIC [6] [µg/mL]	MIC [7] [µg/mL]	MIC [8] [µg/mL]	MIC [9] [µg/mL]	IC50 [10] [nM]	IC50 [11] [µM]	IC50 [12] [nM]	IC50 [13] [nM]	IC50 [14] [µM]	Structure (SMILES)
8 (≈ 18.2 µM)	8 (≈ 18.2 µM)	4 (≈ 9.09 µM)	62.5 (≈ 142 µM)	8 (≈ 18.2 µM)	16 (≈ 36.4 µM)	31.2 (≈ 71 µM)	125 (≈ 284 µM)	31.2 (≈ 71 µM)	1410	2.72	1690	1560	4.94	Fc1cccc(F)c1C1CC(c2ccccc2)=NN1C1=NC(c2ccc(Cl)cc2)S1 (centres undefined)
8 (≈ 18.4 µM)	8 (≈ 18.4 µM)	16 (≈ 36.7 µM)	4 (≈ 9.18 µM)	16 (≈ 36.7 µM)	4 (≈ 9.18 µM)	4 (≈ 9.18 µM)	16 (≈ 36.7 µM)	16 (≈ 36.7 µM)	1230	3.26	2040	2530	6.49	COc1ccc(C2N=C(N3N=C(c4ccccc4)CC3c3c(F)cccc3F)S2)cc1 (centres undefined)
16 (≈ 38.2 µM)	16 (≈ 38.2 µM)	31.2 (≈ 74.7 µM)	16 (≈ 38.2 µM)	16 (≈ 38.2 µM)	31.2 (≈ 74.7 µM)	31.2 (≈ 74.7 µM)	31.2 (≈ 74.7 µM)	31.2 (≈ 74.7 µM)	1110	3.18	2450	1430	5.98	Fc1cccc(F)c1C1CC(c2ccccc2)=NN1c1nc(-c2cccnc2)cs1 (centres undefined)
16 (≈ 36.9 µM)	125 (≈ 288 µM)	31.2 (≈ 72.1 µM)	62.5 (≈ 144 µM)	62.5 (≈ 144 µM)	16 (≈ 36.9 µM)	31.2 (≈ 72.1 µM)	125 (≈ 288 µM)	16 (≈ 36.9 µM)	2110	2.45	3040	1570	7.09	Oc1ccc(-c2csc(N3N=C(c4ccccc4)CC3c3c(F)cccc3F)n2)cc1 (centres undefined)
16 (≈ 34.6 µM)	125 (≈ 270 µM)	125 (≈ 270 µM)	31.2 (≈ 67.6 µM)	125 (≈ 270 µM)	16 (≈ 34.6 µM)	16 (≈ 34.6 µM)	16 (≈ 34.6 µM)	16 (≈ 34.6 µM)	1050	2.26	2090	1930	5.76	O=[N+]([O-])c1ccc(-c2csc(N3N=C(c4ccccc4)CC3c3c(F)cccc3F)n2)cc1 (centres undefined)
